System: patients with advanced solid tumours
Experiment: Phase I toxicity of Carzelesin, 4-weekly 10 min IV infusion (NCI-CTC grading)
Assay type: in vivo, human
Details: for No. of courses with delayed recovery (no. of pts): delayed more than 3 days
Procedure: Carzelesin is a cyclopropylpyrroloindole analogue which acts as a DNA-sequence-specific alkylating agent. In this phase I study, Carzelesin was given as a 4-weekly 10 min IV infusion to 51 patients with advanced solid tumours. Patients received a median of two courses (range 1–5) at one of nine dose levels: 24, 48, 96, 130, 150, 170, 210, 250 and 300 μg m^−2. According to NCI-CTC criteria, non-haematological toxicities (grade 1/2) included fever, nausea and vomiting, mucositis and anorexia, none of which was clearly dose related. The dose-limiting toxicity was haematological and consisted mainly of neutropenia and to a lesser extent thrombocytopenia. From the dose level 150 μg m^−2, the haematological toxicity (particularly thrombocytopenia) was delayed in onset, prolonged and cumulative in some patients. In several courses, double WBC nadirs occurred. The maximum tolerated dose for a single course was 300 μg m^−2. From the dose level 170 μg m^−2, the intended dose intensity could not be delivered to most patients receiving > 2 courses owing to cumulative haematological toxicity. The dose level with the best dose intensity for multiple courses was 150 μg m^−2. The pharmacokinetics of Carzelesin and its metabolites (U-76,073; U-76,074) have been established in 31 patients during the first course of treatment using a HPLC method. […] The concentration of U-76,074 (active metabolite) extended above the lower limit of quantitation (1 ng ml^−1) for short periods of time and only at the higher dose levels. There was no relationship between neutropenia and the AUC of the prodrug Carzelesin, but the presence of detectable plasma levels of the active metabolite U-76,074 was usually associated with a substantial decrease in ANC values. © 1999 Cancer Research Campaign
Carzelesin (U-80,244, Figure 1A) is a cyclopropylpyrroloindole (CPI) prodrug analogue of CC-1065. […] CPI drugs are a class of compounds with unique DNA interactive properties. These agents fit into the minor groove region of DNA, and the CPI function in the molecule mediates a covalent binding to the N3 position of adenine in A-T rich regions, thus forming DNA adducts in a sequence selective fashion (Hurley et al, 1984; Reynolds et al, 1985). Three new CPIs have now been developed. […] Bizelesin differs from the classical CPI drugs in that it contains two chloromethyl functions, which are both converted (via intramolecular rearrangements) to the CPI alkyl- ating species that interact with DNA. Consequently, this agent is capable of forming DNA interstrand cross-links (Lee et al, 1991). […] Therefore, efforts were directed to modu- late the alkylation rate by the preparation of CPI prodrugs that would require chemical or enzymatic conversion. The activation of Carzelesin is a two-step reaction with hydrolysis of the phenyl- urethane substituent to form the intermediate compound U-76,073, followed by ring closure to form the active product U-76,074 (Figure 1B). […] This higher efficacy may be related to the pharmacologic features of the compound. […] Phase I study of Carzelesin (U-80,244) given (4-weekly) by intravenous bolus schedule A Awada1, CJA Punt2, MJ Piccart1, O Van Tellingen3, L Van Manen2, J Kerger1, Y Groot4, J Wanders4, J Verweij5 and DJTh Wagener2 1Institut Jules Bordet, Bd de Waterloo 125, 1000 Brussels, Belgium; 2University Hospital, Geert Grooteplein 8, Box 9101, 6500 HB Nijmegen, The Netherlands; 3The Netherlands Cancer Institute (Antoni van Leeuwenhoek Huis), Plesmanlaan 121, 1066 CX Amsterdam, The Netherlands; 4European Organization for Research and Treatment of Cancer - New Drug Development Office, PO Box 7057, Amsterdam, The Netherlands; 5Rotterdam Cancer Institute, Groene Hilledijk 301, 3075 EA Rotterdam, The Netherlands; on behalf of the EORTC Early Clinical Studies Group and EORTC NDDO Summary Carzelesin is a cyclopropylpyrroloindole analogue which acts as a DNA-sequence-specific alkylating agent. […]

CCN(CC)c1ccc2cc(C(=O)Nc3ccc4[nH]c(C(=O)N5C[C@@H](CCl)c6c5cc(OC(=O)Nc5ccccc5)c5[nH]cc(C)c65)cc4c3)oc2c1 [Carzelesin]
dose level with the best dose intensity for multiple courses (4-weekly 10 min IV infusion): 150 μg m^−2
maximum tolerated dose for a single course (4-weekly 10 min IV infusion): 300 μg m^−2
No. of reduced courses due to haematological toxicity (Table 2, dose level 24 μg m-2): 0
No. of courses with delayed recovery (no. of pts) (Table 2, dose level 24 μg m-2): 0
No. of reduced courses due to haematological toxicity (Table 2, dose level 48 μg m-2): 0
No. of courses with delayed recovery (no. of pts) (Table 2, dose level 48 μg m-2): 0
No. of reduced courses due to haematological toxicity (Table 2, dose level 96 μg m-2): 0
No. of courses with delayed recovery (no. of pts) (Table 2, dose level 96 μg m-2): 0
No. of reduced courses due to haematological toxicity (Table 2, dose level 130 μg m-2): 0
No. of courses with delayed recovery (no. of pts) (Table 2, dose level 130 μg m-2): 0
No. of courses with delayed recovery (no. of pts) (Table 2, dose level 150 μg m-2): 3 (1)
No. of reduced courses due to haematological toxicity (Table 2, dose level 150 μg m-2, reduced to 130, 1 patient): 3
No. of reduced courses due to haematological toxicity (Table 2, dose level 170 μg m-2): 0
No. of courses with delayed recovery (no. of pts) (Table 2, dose level 170 μg m-2): 4 (4)
No. of courses with delayed recovery (no. of pts) (Table 2, dose level 210 μg m-2): 5 (5)
No. of reduced courses due to haematological toxicity (Table 2, dose level 210 μg m-2, reduced to 96, 105, 150, 4 patients): 6
No. of courses with delayed recovery (no. of pts) (Table 2, dose level 250 μg m-2): 3 (3)
No. of reduced courses due to haematological toxicity (Table 2, dose level 250 μg m-2, reduced to 130, 170, 3 patients): 6
No. of courses with delayed recovery (no. of pts) (Table 2, dose level 300 μg m-2): 2 (2)
No. of reduced courses due to haematological toxicity (Table 2, dose level 300 μg m-2, reduced to 150, 2 patients): 2
Neutropenia grade 3/4, No. of courses (Table 3, dose level 24 μg m-2): 0
Neutropenia grade 3/4, No. of patients (worst grade per patient) (Table 3, dose level 24 μg m-2): 0
Neutropenia grade 3/4, patients following the first course (Table 3, dose level 24 μg m-2): 0
No. of toxic patients following the first course (Table 3, dose level 24 μg m-2): 0
Thrombocytopenia grade 3/4, No. of courses (Table 3, dose level 24 μg m-2): 0
Thrombocytopenia grade 3/4, No. of patients (worst grade per patient) (Table 3, dose level 24 μg m-2): 0
Thrombocytopenia grade 3/4, patients following the first course (Table 3, dose level 24 μg m-2): 0
No. of toxic patients/courses (grade 3/4 neutropenia and/or thrombocytopenia) (Table 3, dose level 24 μg m-2, 4/6 evaluable patients/courses): 0
Neutropenia grade 3/4, No. of courses (Table 3, dose level 48 μg m-2): 0
Neutropenia grade 3/4, No. of patients (worst grade per patient) (Table 3, dose level 48 μg m-2): 0
Neutropenia grade 3/4, patients following the first course (Table 3, dose level 48 μg m-2): 0
No. of toxic patients following the first course (Table 3, dose level 48 μg m-2): 0
Thrombocytopenia grade 3/4, No. of courses (Table 3, dose level 48 μg m-2): 0
Thrombocytopenia grade 3/4, No. of patients (worst grade per patient) (Table 3, dose level 48 μg m-2): 0
Thrombocytopenia grade 3/4, patients following the first course (Table 3, dose level 48 μg m-2): 0
No. of toxic patients/courses (grade 3/4 neutropenia and/or thrombocytopenia) (Table 3, dose level 48 μg m-2, 3/7 evaluable patients/courses): 0
Neutropenia grade 3/4, No. of courses (Table 3, dose level 96 μg m-2): 0/1
Neutropenia grade 3/4, No. of patients (worst grade per patient) (Table 3, dose level 96 μg m-2): 0/1
Neutropenia grade 3/4, patients following the first course (Table 3, dose level 96 μg m-2): 0/1
No. of toxic patients following the first course (Table 3, dose level 96 μg m-2): 2
Thrombocytopenia grade 3/4, No. of courses (Table 3, dose level 96 μg m-2): 1/0
Thrombocytopenia grade 3/4, No. of patients (worst grade per patient) (Table 3, dose level 96 μg m-2): 1/0
Thrombocytopenia grade 3/4, patients following the first course (Table 3, dose level 96 μg m-2): 1/0
No. of toxic patients/courses (grade 3/4 neutropenia and/or thrombocytopenia) (Table 3, dose level 96 μg m-2, 5/8 evaluable patients/courses): 2/2
Neutropenia grade 3/4, No. of courses (Table 3, dose level 130 μg m-2): 2/0
Neutropenia grade 3/4, No. of patients (worst grade per patient) (Table 3, dose level 130 μg m-2): 2/0
Neutropenia grade 3/4, patients following the first course (Table 3, dose level 130 μg m-2): 0
No. of toxic patients following the first course (Table 3, dose level 130 μg m-2): 0
Thrombocytopenia grade 3/4, No. of courses (Table 3, dose level 130 μg m-2): 2/1
Thrombocytopenia grade 3/4, No. of patients (worst grade per patient) (Table 3, dose level 130 μg m-2): 2/1
Thrombocytopenia grade 3/4, patients following the first course (Table 3, dose level 130 μg m-2): 0
No. of toxic patients/courses (grade 3/4 neutropenia and/or thrombocytopenia) (Table 3, dose level 130 μg m-2, 5/9 evaluable patients/courses): 3/3
Neutropenia grade 3/4, No. of courses (Table 3, dose level 150 μg m-2): 2/2
Neutropenia grade 3/4, No. of patients (worst grade per patient) (Table 3, dose level 150 μg m-2): 1/2
Neutropenia grade 3/4, patients following the first course (Table 3, dose level 150 μg m-2): 0/1
No. of toxic patients following the first course (Table 3, dose level 150 μg m-2): 2
Thrombocytopenia grade 3/4, No. of courses (Table 3, dose level 150 μg m-2): 1/1
Thrombocytopenia grade 3/4, No. of patients (worst grade per patient) (Table 3, dose level 150 μg m-2): 1/1
Thrombocytopenia grade 3/4, patients following the first course (Table 3, dose level 150 μg m-2): 1/1
No. of toxic patients/courses (grade 3/4 neutropenia and/or thrombocytopenia) (Table 3, dose level 150 μg m-2, 6/14 evaluable patients/courses): 4/5
Neutropenia grade 3/4, No. of courses (Table 3, dose level 170 μg m-2): 1/3
Neutropenia grade 3/4, No. of patients (worst grade per patient) (Table 3, dose level 170 μg m-2): 1/3
Neutropenia grade 3/4, patients following the first course (Table 3, dose level 170 μg m-2): 0/2
No. of toxic patients following the first course (Table 3, dose level 170 μg m-2): 4
Thrombocytopenia grade 3/4, No. of courses (Table 3, dose level 170 μg m-2): 5/2
Thrombocytopenia grade 3/4, No. of patients (worst grade per patient) (Table 3, dose level 170 μg m-2): 3/2
Thrombocytopenia grade 3/4, patients following the first course (Table 3, dose level 170 μg m-2): 3/0
No. of toxic patients/courses (grade 3/4 neutropenia and/or thrombocytopenia) (Table 3, dose level 170 μg m-2, 9/16 evaluable patients/courses): 6/8
Neutropenia grade 3/4, No. of courses (Table 3, dose level 210 μg m-2): 3/3
Neutropenia grade 3/4, No. of patients (worst grade per patient) (Table 3, dose level 210 μg m-2): 2/3
Neutropenia grade 3/4, patients following the first course (Table 3, dose level 210 μg m-2): 3/1
No. of toxic patients following the first course (Table 3, dose level 210 μg m-2): 4
Thrombocytopenia grade 3/4, No. of courses (Table 3, dose level 210 μg m-2): 0/2
No. of toxic patients/courses (grade 3/4 neutropenia and/or thrombocytopenia) (Table 3, dose level 210 μg m-2, 7/10 evaluable patients/courses): 5/6
Thrombocytopenia grade 3/4, No. of patients (worst grade per patient) (Table 3, dose level 210 μg m-2, one patient had pre-existing grade 1 thrombocytopenia): 0/2
